In patent publication US20160000804A1, “INHIBITORS OF NA(V) 1.9 CHANNEL ACTIVITY AND USES THEREOF FOR TREATING PAIN” (UNIVERSITE D'AIX-MARSEILLE, priority 2013, published 2016):
Entries after “also recorded” stand apart in the source; their conditions may differ.

Tests used:
[1] = tested on: wild type and Nav1.9 KO mice; test: Von Frey test after intraplantar injection of cyclodextrins (cholesterol depletion); type: in vivo; conditions: for mechanical allodynia / tactile hyperalgesia (von Frey filament test): intraplantar injection of 20 μl of a 40 mM solution
Protocol: (§1) Methyl βcyclodextrin or α-cyclodextrin (both from sigma) were diluted in saline buffer prior to injection. Methyl βcyclodextrin/cholesterol complex (40 mg of cholesterol/g of complex) also called soluble cholesterol was purchased (from Sigma). Unless otherwise states, all cyclodextrin or cyclodextrin/cholesterol complexes were injected at a 40 mM concentration of cyclodextrin corresponding to 5.6 mM of cholesterol in the complex. Mechanical pain threshold was assessed using von Frey filaments (BioSeb) calibrated from 0.008 to 4.000 g. The filaments were applied five times each, in order of increasing forces, and pressed perpendicularly to the plantar surface of the hindpaw until they bent. The first filament which evoked at least 3/5 response was assigned as the pain threshold in grams.

[2] = tested on: Nav1.9; test: Whole-cell voltage clamp recording of Nav1.9 activation curve in DRG neurons; type: cell-based; conditions: for shift of Nav1.9 activation curve: substance alone versus control neuron, MβCD 20 mM, water soluble cholesterol 20 mM, cholesterol oxidase 4 U/ml, 15 min 37° C.; for reversal of the inflammatory cocktail-induced shift of Nav1.9 activation curve: cholesterol supply in presence of inflammatory cocktail
Protocol: Dissociation of DRG neurons has been previously described (Coste et al., 2004; Coste et al., 2007). In brief, thoraco-lumbar DRG neurons were excised and incubated in enzyme solution containing 2 mg/ml of collagenase IA (Sigma) for 45 min at 37° C. before trituration in Hanks' medium (Life Technologies). Culture medium was Dulbecco's modified Eagle's medium (DMEM, Life Technologies) supplemented with 10% heat-inactivated fetal calf serum, 50 U/ml penicillin-streptomycin, 2 mML-glutamine, 25 mM glucose, 2 ng/ml glial-derived neurotrophic factor (GDNF) (all from Life Technologies), and 25 ng/ml nerve growth factor (NGF, Millipore). Cells were seeded on 35 mm cultures dishes (Nunc) coated with 2 mg/ml laminin (Sigma) and maintained in a humidified atmosphere (5% CO2, 37° C.) for 16-24 h before further cholesterol manipulations or electrophysiological recording.
Patch pipettes had resistances of 3-3.5 MΩ for whole-cell voltage clamp recordings. Intracellular solution used in this study contained: 130 CsCl, 10 HEPES, 8 NaCl, 5 EGTA, 2.4 CaCl2, 1 MgCl2 (pH 7.3, 298 mOsm/l). […] Extracellular solution contained 500 nM tetrodotoxin (TTX) as well as 1 mM amiloride and 50 μM La^3+ in order to block Ca^2+ currents without altering NaN/Nav1.9 properties (Coste et al., 2007). […]. Extracellular media were exchanged using a gravity-fed bath perfusion system at a flow rate of 2-5 ml/min, while bath solution was removed by continuous suction. Recycling was used to reduce the amount of TTX used. Stock solutions of TTX (0.1 mM) and La^3+ (1M) were prepared in water. Stock solution of amiloride hydrochloride (1M) was made in dimethylsulfoxyde (final concentration, 0.1%).
For drugs application, DRG cultures were incubated for 15 min at 37° C. in DMEM containing freshly prepared MβCD (20 mM), water soluble cholesterol (20 mM), or cholesterol oxidase (4 U/ml). The inflammatory cocktail was incubated in extracellular solution for at least 20 min at room temperature (RT).
Data were acquired with an Axopatch 200B amplifier (Axon Instruments), filtered at 2 kHz, and digitally sampled at 20 kHz using PCLAMP 10 software. Currents were leak subtracted using a P/6 protocol. Voltage errors were minimized using 70-85% series resistance compensation. Whole-cell recording were begun 1 min after achieving the whole-cell configuration, to allow Cs^+ to equilibrate and to allow Nav1.9 channels to recover from slow inactivation. Conductance-voltage curves were calculated from the peak current according to the equation G=I/(V−Erev), where V is the test pulse potential and Erev the reversal potential calculated according to the Nernst equation. The activation curve (G-V) was fitted using the Boltzmann function: G/Gmax=1/(1+exp[(V1/2−V)/k]), where G/Gmax is the normalized conductance, V1/2 is the potential of half-maximum channel activation, and k is the steepness factor.

[3] = tested on: mice; test: Carrageenan model of persistent paw inflammation, von Frey test; type: in vivo
Protocol: Persistent paw inflammation was induced by intraplantar injection of 20 μl of 2% λ-carrageenan (Sigma) in mice. Control animal received only vehicle saline solution (0.9% NaCl). 1 hr prior to carrageenan injection, animals received intra peritoneal injection of either saline or ibuprofen (75 mg/kg in saline solution). Mechanical pain threshold was assessed using von Frey filaments (BioSeb) calibrated from 0.008 to 4.000 g. The filaments were applied five times each, in order of increasing forces, and pressed perpendicularly to the plantar surface of the hindpaw until they bent. The first filament which evoked at least 3/5 response was assigned as the pain threshold in grams.

[4] = tested on: wild type and Nav1.9 KO mice; test: Von Frey test in non-inflamed animals; type: in vivo; conditions: intraplantar injection, non-inflamed wild type and Nav1.9 KO mice
Protocol: as §1

[5] = tested on: arthritic mice; test: CFA induced chronic inflammation (monoarthritis), dynamic weight bearing; type: in vivo
Protocol: Chronic inflammation (monoarthritis model) was induced under 2% isoflurane anesthesia by two subcutaneous injections of 15 μl around the tibio-tarsal joint of mice with complete Freund adjuvant (CFA), containing 5 μg/μl heat-killed Mycobacterium butyricum (Becton, Dickinson and cie). The animals' weight distribution on the four limbs was assessed using the dynamic weight bearing test (BioSeb). This new incapacitance test consists in a continuous measurement of all pressure points applied by a freely moving animal, allowing a quantitative evaluation of the weight imbalance caused by paw mechanical allodynia. Mice were placed in an 11×11×22 cm cage with a 44×44 sensor cells grid on the floor. The pressure applied on sensor cells by the animal's paws is recorded at a 10 Hz frequency over a 5 min period. Pressure and surface detection thresholds were determined automatically for each animal by the Dynamic weight bearing 1.3.2h software (Bioseb). After the manual attribution of each pressure point to the corresponding paw, the mean weight applied on each paw is calculated. Unilateral pain is finally evaluated trough the ipsi/contralateral hindpaws weight ratio, the weight applied on forepaws, and the percentage of time spent raising ipsilateral hindpaw.

[6] = tested on: arthritic mice; test: CFA chronic arthritis pain, transdermal gel, mechanical pain; type: in vivo; conditions: gel application; cholesterol 28 mM or ibuprofen 5%
Protocol: Chronic inflammation (monoarthritis model) was induced under 2% isoflurane anesthesia by two subcutaneous injections of 15 μl around the tibio-tarsal joint of mice with complete Freund adjuvant (CFA), containing 5 μg/μl heat-killed Mycobacterium butyricum (Becton, Dickinson and cie). Mechanical pain threshold was assessed using von Frey filaments (BioSeb) calibrated from 0.008 to 4.000 g. The filaments were applied five times each, in order of increasing forces, and pressed perpendicularly to the plantar surface of the hindpaw until they bent. The first filament which evoked at least 3/5 response was assigned as the pain threshold in grams.

[7] = periarticular injection, 20 μl of a 5.6 mM solution, versus saline

Compound: methyl-beta-cyclodextrin [MBCD]
- mechanical allodynia / tactile hyperalgesia (von Frey filament test) ([1]; Nav1.9 KO mice): markedly reduced
- mechanical allodynia / tactile hyperalgesia (von Frey filament test) ([1]; wild type mice): induces a strong mechanical allodynia
- shift of Nav1.9 activation curve [2]: shift Nav1.9 activation curves to hyperpolarised potential
- shift of Nav1.9 activation curve ([2]; listed as MβCD): induces the same shift as inflammatory cocktail

Compound: cholesterol oxidase
- shift of Nav1.9 activation curve [2]: induces the same shift as inflammatory cocktail; also recorded: shift Nav1.9 activation curves to hyperpolarised potential

Compound: OC[C@H]1O[C@@H]2O[C@H]3[C@H](O)[C@@H](O)[C@@H](O[C@H]4[C@H](O)[C@@H](O)[C@@H](O[C@H]5[C@H](O)[C@@H](O)[C@@H](O[C@H]6[C@H](O)[C@@H](O)[C@@H](O[C@H]7[C@H](O)[C@@H](O)[C@@H](O[C@H]1[C@H](O)[C@H]2O)O[C@@H]7CO)O[C@@H]6CO)O[C@@H]5CO)O[C@@H]4CO)O[C@@H]3CO [α-CD, α-cyclodextrin]
- mechanical allodynia / tactile hyperalgesia (von Frey filament test) ([1]; Nav1.9 KO mice): did not induce mechanical allodynia
- mechanical allodynia / tactile hyperalgesia (von Frey filament test) ([1]; wild type mice): did not induce mechanical allodynia
- mechanical allodynia / tactile hyperalgesia (von Frey filament test) ([1]; wild type mice, listed as Alphα-cyclodextrin): does not induce tactile hyperalgia

Compound: CC(C)CCC[C@@H](C)[C@H]1CC[C@H]2[C@@H]3CC=C4C[C@@H](O)CC[C@]4(C)[C@H]3CC[C@]12C [cholesterol]
- carrageenan induced mechanical allodynia, transdermal delivery ([3]; gel with 5.6 mM cholesterol applied for 1.5 hrs, versus control gel): kills carragenin induced pain
- lambda-carrageenan-induced tactile hyperalgesia (von Frey) ([3]; intraplantar injection of soluble cholesterol, 5, 6 mM of cholesterol): inhibits inflammatory evoked pain
- mechanical threshold in physiological non-inflamed conditions [4]: without changing physiological mechanical threshold
- mechanical threshold in physiological non-inflamed conditions ([4]; listed as Cholesterol): does not modify mechanical sensibility
- weight put on tail ([5]; periarticular cholesterol injection versus saline injected mice): reduces the weight put on tail
- posture / behavioural parameters (dynamic weight bearing) [5, 7]: improved all posture parameters examined; also recorded: improve behavioural parameter of arthritic mice
- weight borne by inflamed limbs [5, 7]: bear more weight than limbs injected with saline solution
- chronic arthritis mechanical pain, transdermal delivery [6]: much efficient to treat arthritic inflammatory pain than a 5% ibuprofen gel
- reversal of the inflammatory cocktail-induced shift of Nav1.9 activation curve [2]: reverses this shift of activation
- reversal of the inflammatory cocktail-induced shift of Nav1.9 activation curve ([2]; listed as Cholesterol): reverses the shift
- shift of Nav1.9 activation curve [2]: does not modify activation properties of Nav1.9

Compound: CC(C)Cc1ccc(C(C)C(=O)O)cc1 (stereo not drawn) [ibuprofen]
- effect on methyl-beta-cyclodextrin-induced allodynia (mechanical threshold) ([1]; intraperitoneal 75 mg/kg, wild type and Nav1.9 KO mice): does not modify methyl-beta-cyclodextrin-induced tactile hyperalgia; also recorded: does not reverse allodynic phenotype; also recorded: did not change mechanical threshold
- lambda-carrageenan-induced tactile hyperalgesia (von Frey) ([3]; intraperitoneal injection (75 mg/kg, 1 hr prior to carrageenan)): reverse lambdα-carrageenan-induced tactile hyperalgesia
